How the values were obtained:
Test in all cases: biochemical
Design in all cases: Thermo Fisher SelectScreen kinase panel: Z'-LYTE and Adapta activity, LanthaScreen binding
Abl = molecular target: T1, Abl (Homo sapiens, UniProt P00519)
T1 construct: gene ABL1
Method in brief: (§1)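 Single-concentration panel: 10 µM GNE684 in KINOMEscan scanMAX binding (468 kinases) and in a 221-kinase panel run as Z'-LYTE/Adapta activity or LanthaScreen binding assays.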

LRRK2 = LRRK2 (Homo sapiens, UniProt Q5S007)
Method in brief: as §1

KDR = KDR (Homo sapiens, UniProt P35968)
Method in brief: as §1

RAF1(Y340D,Y341D) = RAF1(Y340D,Y341D) (Homo sapiens, UniProt P04049, Y340D/Y341D)
Method in brief: as §1

FGR = FGR (Homo sapiens, UniProt P09769)
Method in brief: as §1

HIPK2 = HIPK2 (Homo sapiens, UniProt Q9H2X6)
Method in brief: as §1

MST3 = molecular target: T2, MST3 (Homo sapiens, UniProt Q9Y6E0)
T2 construct: gene STK24
Method in brief: as §1

LYN = LYN (Homo sapiens, UniProt P07948)
Method in brief: as §1

EPHA7 = EPHA7 (Homo sapiens, UniProt Q15375)
Method in brief: as §1

ACVR1B = ACVR1B (Homo sapiens, UniProt P36896)
Method in brief: as §1

IKK-alpha = molecular target: T3, IKK-alpha (Homo sapiens, UniProt O15111)
T3 construct: gene CHUK
Method in brief: as §1

RIPK2 = RIPK2 (Homo sapiens, UniProt O43353)
Method in brief: as §1

CDK8/cyclinC = CDK8/cyclinC (Homo sapiens, UniProt P49336)
Method in brief: as §1

CaMKII_beta = molecular target: T4, CaMKII_beta (Homo sapiens, UniProt Q13554)
T4 construct: gene CAMK2B
Method in brief: as §1

MKK6 = molecular target: T5, MKK6 (Homo sapiens, UniProt P52564)
T5 construct: gene MAP2K6
Method in brief: as §1

FGFR1 = FGFR1 (Homo sapiens, UniProt P11362)
Method in brief: as §1

ALK2 = molecular target: T6, ALK2 (Homo sapiens, UniProt Q04771)
T6 construct: gene ACVR1
Method in brief: as §1

ROCK1 = ROCK1 (Homo sapiens, UniProt Q13464)
Method in brief: as §1

NEK4 = NEK4 (Homo sapiens, UniProt P51957)
Method in brief: as §1

IGF1R = IGF1R (Homo sapiens, UniProt P08069)
Method in brief: as §1

GSK3_alpha = molecular target: T7, GSK3_alpha (Homo sapiens, UniProt P49840)
T7 construct: gene GSK3A
Method in brief: as §1

DRAK1 = molecular target: T8, DRAK1 (Homo sapiens, UniProt Q9UEE5)
T8 construct: gene STK17A
Method in brief: as §1

PKC_beta1 = molecular target: T9, PKC_beta1 (Homo sapiens, UniProt P05771)
T9 construct: gene PRKCB; isoform beta I
Method in brief: as §1

KDR, sequence (P35968 whole entry): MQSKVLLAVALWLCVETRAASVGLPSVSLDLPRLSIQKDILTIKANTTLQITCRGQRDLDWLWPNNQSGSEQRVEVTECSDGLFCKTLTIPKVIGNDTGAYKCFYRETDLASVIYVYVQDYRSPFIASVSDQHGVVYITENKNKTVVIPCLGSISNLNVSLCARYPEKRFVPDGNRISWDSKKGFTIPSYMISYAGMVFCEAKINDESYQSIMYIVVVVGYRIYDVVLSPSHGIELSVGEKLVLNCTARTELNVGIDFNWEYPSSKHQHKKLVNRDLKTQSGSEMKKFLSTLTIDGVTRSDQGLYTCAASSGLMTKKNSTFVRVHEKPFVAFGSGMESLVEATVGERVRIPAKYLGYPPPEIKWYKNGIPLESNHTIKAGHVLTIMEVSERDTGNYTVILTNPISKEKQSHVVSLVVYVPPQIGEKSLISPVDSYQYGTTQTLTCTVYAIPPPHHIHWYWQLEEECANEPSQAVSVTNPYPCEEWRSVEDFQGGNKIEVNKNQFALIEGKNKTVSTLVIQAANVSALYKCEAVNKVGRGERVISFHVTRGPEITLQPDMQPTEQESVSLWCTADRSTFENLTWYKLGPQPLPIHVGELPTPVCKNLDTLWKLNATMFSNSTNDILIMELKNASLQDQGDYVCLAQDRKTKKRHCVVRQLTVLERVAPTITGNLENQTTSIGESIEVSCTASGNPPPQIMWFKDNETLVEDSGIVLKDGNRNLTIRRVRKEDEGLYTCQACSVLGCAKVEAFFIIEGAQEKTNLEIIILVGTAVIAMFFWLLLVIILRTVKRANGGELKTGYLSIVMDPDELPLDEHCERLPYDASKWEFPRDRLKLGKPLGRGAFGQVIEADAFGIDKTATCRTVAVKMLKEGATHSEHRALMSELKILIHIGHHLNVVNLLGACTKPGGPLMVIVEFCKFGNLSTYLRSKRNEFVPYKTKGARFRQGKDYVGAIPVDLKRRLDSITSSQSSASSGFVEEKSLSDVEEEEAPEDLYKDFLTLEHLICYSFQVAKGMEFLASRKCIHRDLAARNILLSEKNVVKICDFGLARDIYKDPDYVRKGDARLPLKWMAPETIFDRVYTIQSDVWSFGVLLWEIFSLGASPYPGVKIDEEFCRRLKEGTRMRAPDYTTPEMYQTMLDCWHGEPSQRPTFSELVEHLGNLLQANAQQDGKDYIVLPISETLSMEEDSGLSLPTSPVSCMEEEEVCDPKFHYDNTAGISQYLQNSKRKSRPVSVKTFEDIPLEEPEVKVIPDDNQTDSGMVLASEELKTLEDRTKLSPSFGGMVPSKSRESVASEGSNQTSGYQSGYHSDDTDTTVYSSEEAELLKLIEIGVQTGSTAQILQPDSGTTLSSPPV
LRRK2, sequence (Q5S007 whole entry): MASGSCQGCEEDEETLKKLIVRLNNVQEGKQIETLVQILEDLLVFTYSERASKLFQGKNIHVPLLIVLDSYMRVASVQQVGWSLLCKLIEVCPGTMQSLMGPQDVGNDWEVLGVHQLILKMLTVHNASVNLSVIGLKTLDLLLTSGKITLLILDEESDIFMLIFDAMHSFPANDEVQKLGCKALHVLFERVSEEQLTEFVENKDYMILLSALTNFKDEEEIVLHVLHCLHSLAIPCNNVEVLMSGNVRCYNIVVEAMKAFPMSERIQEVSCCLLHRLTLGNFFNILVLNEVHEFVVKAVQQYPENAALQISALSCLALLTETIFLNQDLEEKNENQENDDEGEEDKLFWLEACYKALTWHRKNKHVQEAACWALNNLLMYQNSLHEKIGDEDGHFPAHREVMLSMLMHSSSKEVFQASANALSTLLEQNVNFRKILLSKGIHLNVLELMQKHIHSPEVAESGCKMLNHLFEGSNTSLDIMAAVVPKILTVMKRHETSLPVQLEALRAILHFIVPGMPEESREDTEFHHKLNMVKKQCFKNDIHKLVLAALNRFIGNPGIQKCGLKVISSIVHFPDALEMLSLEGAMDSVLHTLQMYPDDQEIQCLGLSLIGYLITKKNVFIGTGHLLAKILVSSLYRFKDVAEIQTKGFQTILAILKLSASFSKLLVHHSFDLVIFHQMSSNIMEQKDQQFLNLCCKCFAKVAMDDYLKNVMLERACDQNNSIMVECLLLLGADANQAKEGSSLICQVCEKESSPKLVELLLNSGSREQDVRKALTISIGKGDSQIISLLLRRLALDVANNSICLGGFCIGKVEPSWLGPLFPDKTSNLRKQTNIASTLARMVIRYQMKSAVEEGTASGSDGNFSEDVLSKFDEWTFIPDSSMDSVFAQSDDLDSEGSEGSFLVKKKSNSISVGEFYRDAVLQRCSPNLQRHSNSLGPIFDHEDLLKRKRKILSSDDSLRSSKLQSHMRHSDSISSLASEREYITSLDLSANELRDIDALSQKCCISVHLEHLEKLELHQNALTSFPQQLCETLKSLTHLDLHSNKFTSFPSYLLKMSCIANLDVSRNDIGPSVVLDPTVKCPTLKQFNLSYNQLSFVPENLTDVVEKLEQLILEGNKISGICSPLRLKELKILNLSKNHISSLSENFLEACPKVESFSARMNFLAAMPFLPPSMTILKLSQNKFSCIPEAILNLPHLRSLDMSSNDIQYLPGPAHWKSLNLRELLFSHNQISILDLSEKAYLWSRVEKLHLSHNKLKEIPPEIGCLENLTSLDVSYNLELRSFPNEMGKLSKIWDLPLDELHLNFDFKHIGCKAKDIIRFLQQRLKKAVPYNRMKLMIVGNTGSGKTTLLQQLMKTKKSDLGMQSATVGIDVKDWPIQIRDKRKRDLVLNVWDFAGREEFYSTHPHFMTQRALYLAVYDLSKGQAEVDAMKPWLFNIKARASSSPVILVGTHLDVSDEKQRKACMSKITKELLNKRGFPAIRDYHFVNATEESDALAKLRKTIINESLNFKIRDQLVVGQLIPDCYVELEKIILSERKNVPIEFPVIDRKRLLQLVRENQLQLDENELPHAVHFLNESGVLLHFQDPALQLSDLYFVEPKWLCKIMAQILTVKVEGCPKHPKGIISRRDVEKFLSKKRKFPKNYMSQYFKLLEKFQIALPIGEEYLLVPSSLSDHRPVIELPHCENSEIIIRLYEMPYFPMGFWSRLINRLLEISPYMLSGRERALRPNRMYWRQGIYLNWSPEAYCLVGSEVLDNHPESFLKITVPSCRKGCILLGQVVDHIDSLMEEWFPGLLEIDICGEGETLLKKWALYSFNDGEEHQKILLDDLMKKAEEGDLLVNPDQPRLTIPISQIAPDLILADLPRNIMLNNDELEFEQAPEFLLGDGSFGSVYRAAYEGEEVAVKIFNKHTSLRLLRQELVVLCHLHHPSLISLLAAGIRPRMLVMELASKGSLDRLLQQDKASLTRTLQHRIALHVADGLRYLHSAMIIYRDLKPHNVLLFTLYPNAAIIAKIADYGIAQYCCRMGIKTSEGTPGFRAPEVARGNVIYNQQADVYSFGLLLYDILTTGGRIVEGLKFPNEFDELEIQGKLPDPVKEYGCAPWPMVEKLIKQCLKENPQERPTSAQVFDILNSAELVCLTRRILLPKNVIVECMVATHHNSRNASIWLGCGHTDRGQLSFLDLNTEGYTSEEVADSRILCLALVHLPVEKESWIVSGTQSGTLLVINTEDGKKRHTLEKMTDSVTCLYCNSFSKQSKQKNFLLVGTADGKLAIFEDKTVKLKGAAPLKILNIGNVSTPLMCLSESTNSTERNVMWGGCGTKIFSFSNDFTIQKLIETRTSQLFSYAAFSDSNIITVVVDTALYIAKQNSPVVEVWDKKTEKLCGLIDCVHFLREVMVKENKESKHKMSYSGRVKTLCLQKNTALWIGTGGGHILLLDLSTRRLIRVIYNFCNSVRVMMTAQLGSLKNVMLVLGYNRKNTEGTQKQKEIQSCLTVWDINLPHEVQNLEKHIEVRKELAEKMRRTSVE
ACVR1B, sequence (P36896 whole entry): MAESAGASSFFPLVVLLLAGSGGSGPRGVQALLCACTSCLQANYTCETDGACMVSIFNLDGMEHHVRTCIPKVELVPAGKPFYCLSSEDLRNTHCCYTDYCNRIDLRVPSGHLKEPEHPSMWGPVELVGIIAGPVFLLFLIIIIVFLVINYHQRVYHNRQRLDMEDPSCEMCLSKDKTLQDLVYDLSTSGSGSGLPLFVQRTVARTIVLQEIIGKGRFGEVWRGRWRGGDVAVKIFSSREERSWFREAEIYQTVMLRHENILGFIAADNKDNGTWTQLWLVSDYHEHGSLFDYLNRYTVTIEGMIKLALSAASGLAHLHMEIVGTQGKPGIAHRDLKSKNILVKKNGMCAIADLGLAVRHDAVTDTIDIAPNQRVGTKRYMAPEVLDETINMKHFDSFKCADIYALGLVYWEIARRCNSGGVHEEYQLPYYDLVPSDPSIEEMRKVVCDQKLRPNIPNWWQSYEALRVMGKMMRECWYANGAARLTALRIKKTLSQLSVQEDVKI
T9 sequence (P05771 whole entry, canonical isoform): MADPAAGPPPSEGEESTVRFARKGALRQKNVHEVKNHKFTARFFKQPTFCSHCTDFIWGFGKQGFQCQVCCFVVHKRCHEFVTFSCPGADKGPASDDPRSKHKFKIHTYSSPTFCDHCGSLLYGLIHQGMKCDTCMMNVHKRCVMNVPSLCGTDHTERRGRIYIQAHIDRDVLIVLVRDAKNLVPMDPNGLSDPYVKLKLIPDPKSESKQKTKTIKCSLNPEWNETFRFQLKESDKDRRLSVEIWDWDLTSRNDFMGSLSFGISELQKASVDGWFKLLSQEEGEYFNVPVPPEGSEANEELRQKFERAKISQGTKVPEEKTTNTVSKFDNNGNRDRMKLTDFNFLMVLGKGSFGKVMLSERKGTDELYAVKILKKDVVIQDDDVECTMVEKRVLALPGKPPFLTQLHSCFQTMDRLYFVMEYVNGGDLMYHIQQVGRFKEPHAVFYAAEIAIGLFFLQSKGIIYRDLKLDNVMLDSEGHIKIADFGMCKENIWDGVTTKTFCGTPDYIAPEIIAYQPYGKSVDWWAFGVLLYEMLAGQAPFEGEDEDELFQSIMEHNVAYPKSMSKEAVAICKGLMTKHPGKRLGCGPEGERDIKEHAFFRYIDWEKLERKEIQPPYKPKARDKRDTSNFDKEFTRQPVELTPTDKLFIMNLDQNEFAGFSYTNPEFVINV

`COc1cc2c(cn1)N(C)C(=O)[C@@H](NC(=O)c1nc3n(n1)[C@H](c1ccccc1)CC3)CC2` [GNE684, (S)-N-((S)-7-methoxy-1-methyl-2-oxo-2,3,4,5-tetrahydro-1H-pyrido[3,4-b]azepin-3-yl)-5-phenyl-6,7-dihydro-5H-pyrrolo[1,2-b][1,2,4]triazole-2-carboxamide] gave an inhibition at 10 µM (Abl) of 2%, an inhibition at 10 µM (LRRK2) of -19.5% and an inhibition at 10 µM (KDR) of -0.5%. For the same compound, the inhibition at 10 µM (RAF1(Y340D,Y341D)) was -2%, the inhibition at 10 µM (FGR) was 8% and the inhibition at 10 µM (HIPK2) was -1.5%. It also gave an inhibition at 10 µM (MST3) of 4%, an inhibition at 10 µM (LYN) of 7% and an inhibition at 10 µM (EPHA7) of -4%. For the same compound, the inhibition at 10 µM (ACVR1B) was -2%, the inhibition at 10 µM (IKK-alpha) was -3% and the inhibition at 10 µM (RIPK2) was 2%. For the same compound, the inhibition at 10 µM (CDK8/cyclinC) was 4.5%, the inhibition at 10 µM (CaMKII_beta) was 2.5% and the inhibition at 10 µM (MKK6) was -4.5%. For the same compound, the inhibition at 10 µM (FGFR1) was -2%, the inhibition at 10 µM (ALK2) was 2% and the inhibition at 10 µM (ROCK1) was 1%. The inhibition at 10 µM (NEK4) was 4.5%, the inhibition at 10 µM (IGF1R) was 5% and the inhibition at 10 µM (GSK3_alpha) was 5%. It also gave an inhibition at 10 µM (DRAK1) of 0.5% and an inhibition at 10 µM (PKC_beta1) of 3.5%.

Source: PMC7206119, “RIP1 inhibition blocks inflammatory diseases but not tumor growth or metastases” (Cell Death and Differentiation, 2019)
